The values below come from patent publication US8637504B2, “Sulfur-containing heterocyclic derivative having beta secretase inhibitory activity” (Shionogi & Co., Ltd., priority 2008, dated 2014).

In general, IC50 refers to the concentration needed to halve the response being measured. Usually solubility stands for how much of the substance goes into solution per volume. Low readings indicate a poorly soluble substance, high ones a readily soluble substance.

One series deals with Recombinant human BACE-1 (Homo sapiens (Human), UniProt P56817). The series can be described thus: Assay of β-secretase-inhibiting activity.
Recombinant human BACE-1, sequence (P56817 46-501): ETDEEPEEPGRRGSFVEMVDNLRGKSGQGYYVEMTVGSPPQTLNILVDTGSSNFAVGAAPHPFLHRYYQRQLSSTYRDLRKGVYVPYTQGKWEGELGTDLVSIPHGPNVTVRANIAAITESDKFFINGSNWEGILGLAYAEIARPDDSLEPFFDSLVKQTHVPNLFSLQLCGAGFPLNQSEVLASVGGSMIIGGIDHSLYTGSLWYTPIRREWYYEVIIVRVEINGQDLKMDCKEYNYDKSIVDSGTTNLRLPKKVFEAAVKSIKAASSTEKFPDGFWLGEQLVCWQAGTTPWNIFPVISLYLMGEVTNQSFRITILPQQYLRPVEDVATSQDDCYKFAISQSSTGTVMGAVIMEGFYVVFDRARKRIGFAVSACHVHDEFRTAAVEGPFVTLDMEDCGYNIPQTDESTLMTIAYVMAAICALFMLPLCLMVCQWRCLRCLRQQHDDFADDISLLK
Series [1] in a line: Metabolism stability test. The class given is in vitro ADME. Particulars: human liver microsomes 0.5 mg protein/mL, NADPH, 37° C., 30 minutes. How it is done: Using a commercially available pooled human hepatic microsomes, a test compound was reacted for a constant time, a remaining rate was calculated by comparing a reacted sample and an unreacted sample, thereby, a degree of metabolism in liver was assessed.
A reaction was performed (oxidative reaction) at 37° C. for 0 minute or 30 minutes in the presence of 1 mmol/L NADPH in 0.2 mL of a buffer (50 mmol/L Tris-HCl pH 7.4, 150 mmol/L potassium chloride, 10 mmol/L magnesium chloride) containing 0.5 mg protein/mL of human liver microsomes. After the reaction, 50 μl, of the reaction solution was added to 100 μL of a methanol/acetonitrile=1/1 (v/v), mixed and centrifuged at 3000 rpm for 15 minutes. The test compound in the supernatant was quantified by LC/MS/MS, and a remaining amount of the test compound after the reaction was calculated, letting a compound amount at 0 minute reaction time to be 100%.
Background: Liver microsomes are vesicles of endoplasmic reticulum, rich in cytochrome P450 enzymes.

The target of the next series is CYP2D6 (Homo sapiens (Human), UniProt P10635). The series can be described thus: CYP inhibition test (CYP2D6). It is filed as in vitro ADME. As to conditions: pooled human hepatic microsome, dextromethorphan O-demethylation. As to the method: (§1) After the centrifugation at 3000 rpm for 15 minutes, resorufin (CYP1A2 metabolite) in the supernatant was quantified by a fluorescent multilabel counter and tributamide hydroxide (CYP2CP metabolite), mephenyloin 4′ hydroxide (CYP2C19 metabolite), […] (CYP2D6 metabolite), and terfenadine alcohol (CYP3A4 metabolite) were quantified by LC/MS/MS. Addition of only DMSO being a solvent dissolving a drug to a reaction system was adopted as a control (100%), remaining activity (%) was calculated at each concentration of a test drug added as the solution and […] was calculated by reverse presumption by a logistic model using a concentration and an inhibition rate.
CYP2D6, sequence (P10635 whole entry): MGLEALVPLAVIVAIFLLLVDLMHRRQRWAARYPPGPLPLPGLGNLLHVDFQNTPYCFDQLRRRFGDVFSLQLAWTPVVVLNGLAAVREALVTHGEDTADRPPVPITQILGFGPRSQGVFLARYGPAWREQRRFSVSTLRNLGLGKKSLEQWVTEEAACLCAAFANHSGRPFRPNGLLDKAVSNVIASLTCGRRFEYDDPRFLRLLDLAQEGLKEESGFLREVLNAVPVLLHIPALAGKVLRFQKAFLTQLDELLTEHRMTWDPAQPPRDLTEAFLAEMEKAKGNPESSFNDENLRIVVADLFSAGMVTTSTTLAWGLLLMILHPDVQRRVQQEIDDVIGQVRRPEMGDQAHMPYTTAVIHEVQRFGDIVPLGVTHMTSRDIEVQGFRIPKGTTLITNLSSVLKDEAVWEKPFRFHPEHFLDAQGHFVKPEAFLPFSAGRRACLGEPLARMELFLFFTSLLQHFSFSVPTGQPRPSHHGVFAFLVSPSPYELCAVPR

The target in series [2] is T1, CYP3A4 (Homo sapiens (Human), UniProt P08684). The series can be described thus: CYP inhibition test (CYP3A4). As to conditions: pooled human hepatic microsome, terfenedine hydroxylation. The class given is in vitro ADME. How it is done:
as §1

The target of the next series is CYP2C19 (Homo sapiens (Human), UniProt P33261). The series can be described thus: CYP inhibition test (CYP2C19). The class given is in vitro ADME. As to conditions: pooled human hepatic microsome, mephenyloin 4′-hydroxylation. As to the method: as §1
CYP2C19, sequence (P33261 whole entry): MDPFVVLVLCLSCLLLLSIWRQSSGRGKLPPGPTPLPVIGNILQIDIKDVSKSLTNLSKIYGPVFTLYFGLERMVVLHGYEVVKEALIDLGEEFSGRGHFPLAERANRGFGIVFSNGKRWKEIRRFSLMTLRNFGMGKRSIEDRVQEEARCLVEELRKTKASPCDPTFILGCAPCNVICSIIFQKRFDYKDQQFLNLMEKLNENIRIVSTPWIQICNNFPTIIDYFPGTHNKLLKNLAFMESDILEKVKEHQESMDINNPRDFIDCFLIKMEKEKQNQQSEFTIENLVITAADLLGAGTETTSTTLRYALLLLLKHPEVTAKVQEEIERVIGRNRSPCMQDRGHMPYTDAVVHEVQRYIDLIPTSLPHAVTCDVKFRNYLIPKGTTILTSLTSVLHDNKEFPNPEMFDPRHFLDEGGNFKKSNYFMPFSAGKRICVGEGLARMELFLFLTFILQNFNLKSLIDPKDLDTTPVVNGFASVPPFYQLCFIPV
A further series deals with CYP2C9 (Homo sapiens (Human), UniProt P11712). Put plainly: CYP inhibition test (CYP2C9). Particulars: pooled human hepatic microsome, tolbutamide methyl-hydroxylation. It is filed as in vitro ADME. How it is done: as §1
CYP2C9, sequence (P11712 whole entry): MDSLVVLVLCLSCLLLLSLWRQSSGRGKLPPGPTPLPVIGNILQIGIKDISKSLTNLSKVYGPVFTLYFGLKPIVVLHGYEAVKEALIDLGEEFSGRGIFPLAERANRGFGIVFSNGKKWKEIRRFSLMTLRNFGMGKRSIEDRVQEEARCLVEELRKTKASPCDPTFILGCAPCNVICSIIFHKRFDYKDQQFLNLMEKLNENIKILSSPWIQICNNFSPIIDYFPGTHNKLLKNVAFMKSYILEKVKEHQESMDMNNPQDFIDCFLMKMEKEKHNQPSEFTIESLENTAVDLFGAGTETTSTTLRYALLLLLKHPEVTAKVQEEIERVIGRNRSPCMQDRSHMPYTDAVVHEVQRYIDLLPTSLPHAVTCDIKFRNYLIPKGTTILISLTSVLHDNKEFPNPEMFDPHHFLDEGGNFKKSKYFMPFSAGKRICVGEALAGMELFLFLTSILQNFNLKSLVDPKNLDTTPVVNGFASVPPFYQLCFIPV
The target in the next series is CYP1A2 (Homo sapiens (Human), UniProt P05177). The series can be described thus: CYP inhibition test (CYP1A2). As to conditions: pooled human hepatic microsome, 7-ethoxyresorufin O-deethylation. The class given is in vitro ADME. As to the method: as §1
CYP1A2, sequence (P05177 whole entry): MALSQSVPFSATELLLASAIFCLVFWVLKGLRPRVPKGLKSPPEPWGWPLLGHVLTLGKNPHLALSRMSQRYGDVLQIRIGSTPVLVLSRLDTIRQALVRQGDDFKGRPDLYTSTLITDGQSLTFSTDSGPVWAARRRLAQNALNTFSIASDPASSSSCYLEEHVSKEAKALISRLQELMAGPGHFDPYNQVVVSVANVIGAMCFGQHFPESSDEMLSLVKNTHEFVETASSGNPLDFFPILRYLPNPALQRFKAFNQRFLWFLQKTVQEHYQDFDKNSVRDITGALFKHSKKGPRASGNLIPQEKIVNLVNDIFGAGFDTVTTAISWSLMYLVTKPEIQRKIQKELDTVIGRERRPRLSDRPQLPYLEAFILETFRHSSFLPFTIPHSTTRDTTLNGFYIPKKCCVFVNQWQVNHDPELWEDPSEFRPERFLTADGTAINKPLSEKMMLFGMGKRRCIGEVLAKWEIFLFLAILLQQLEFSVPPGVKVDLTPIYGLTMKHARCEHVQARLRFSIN
Series [3] has as its target T1, CYP3A4. Put plainly: CYP3A4 fluorescent MBI test. Particulars: pre-reaction time 0 or 30 minutes, substrate 7-BFC. It is filed as in vitro ADME. How it is done:
The CYP3A4 fluorescent MBI test is a test of investigating enhancement of CYP3A4 inhibition of a compound by a metabolism reaction, and the test was performed using, as CYP3A4 enzyme expressed in Escherichia coli and employing, as an index, a reaction in which 7-benzyloxytrifluoromethylchmarin (7-BFC) is debenzylated by the CYP3A4 enzyme to produce a metabolite, 7-hydroxytrifluoromethylchmarin (HFC) emitting fluorescent light.
The reaction conditions were as follows: substrate, 5.6 μmol/L 7-BFC; pre-reaction time, 0 or 30 minutes; reaction time, 15 minutes; reaction temperature, 25° C. […]
An enzyme in a K-Pi buffer (pH 7.4) and a test drug solution as a pre-reaction solution were added to a 96-well plate at the composition of the pre-reaction, a part of it was transferred to another 96-well plate so that it was 1/10 diluted by a substrate in a K-Pi buffer, NADPH as a co-factor was added to initiate a reaction as an index (without preincubation) and, after a predetermined time of a reaction, acetonitrile/0.5 mol/L Tris (trishydroxyaminomethane)=4/1 was added to stop the reaction. […] For the plate on which each index reaction had been performed, a fluorescent value of 7-HFC which is a metabolite was measured with a fluorescent plate reader. […]

Series [4] has as its target human ether-a-go-go related gene (hERG) channel (Homo sapiens (Human), UniProt Q12809). The series can be described thus: hERG test. It is filed as cell-based. As to conditions: HEK293 cells expressing hERG, patch clamp, applied 10 minutes. The text has this: For the purpose of assessing risk of an electrocardiogram QT interval prolongation, effects on delayed rectifier K+ current (IKr), which plays an important role in the ventricular repolarization process, was studied using HEK293 cells expressing human ether-a-go-go related gene (hERG) channel.
After a cell was retained at a membrane potential of −80 mV by whole cell patch clamp method using an automated patch clamp system (PatchXpress 7000A, Axon Instruments Inc.), IKr induced by depolarization pulse stimulation at +50 mV for 2 seconds and, further, repolarization pulse stimulation at −50 mV for 2 seconds was recorded. […] From the recording IKr, an absolute value of the tail peak current was measured based on the current value at the resting membrane potential using an analysis software (DataXpress ver.1, Molecular Devices Corporation). Further, the % inhibition relative to the tail peak current before application of the test substance was calculated, and compared with the vehicle-applied group (0.1% dimethyl sulfoxide solution) to assess influence of the test substance on IKr.

A further series is described as follows: Solubility test. The class given is physicochemical. Particulars: pH 1.2, simulated gastric fluid, kinetic from dmso stock; JP-I medium, turbidity after 4 hours. How it is done: A 2-fold dilution series (12 points) of a 10 mM solution of a test compound in DMSO was added to a medium (JP-I, JP-II) (2%), and solubility was assessed by 3 stages (High; >40 Medium; 3-40 μM, Low; <3 μM) from a turbidity after 4 hours (crystallization information).

[5] abbreviates: Recombinant human BACE-1 7.4 nM, substrate peptide 18 nM, pH 5.0, 30° C. 3 hours.

Like-named read-outs stand apart in the source and are kept apart here.

T1 sequence (P08684 whole entry): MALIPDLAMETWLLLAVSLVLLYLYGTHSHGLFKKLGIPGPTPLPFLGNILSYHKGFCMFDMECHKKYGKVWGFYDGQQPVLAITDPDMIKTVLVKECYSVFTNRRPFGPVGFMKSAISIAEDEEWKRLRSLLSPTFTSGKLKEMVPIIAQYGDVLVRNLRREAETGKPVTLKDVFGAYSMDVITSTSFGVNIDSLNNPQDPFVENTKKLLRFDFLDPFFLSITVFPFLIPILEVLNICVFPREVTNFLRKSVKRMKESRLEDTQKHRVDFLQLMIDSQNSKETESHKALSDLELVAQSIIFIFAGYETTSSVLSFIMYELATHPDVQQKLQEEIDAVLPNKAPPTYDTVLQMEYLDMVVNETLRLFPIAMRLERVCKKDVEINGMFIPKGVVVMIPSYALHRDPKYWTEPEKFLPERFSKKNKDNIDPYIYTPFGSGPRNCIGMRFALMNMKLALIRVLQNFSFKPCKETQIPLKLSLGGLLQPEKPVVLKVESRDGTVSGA
human ether-a-go-go related gene (hERG) channel, sequence (Q12809 whole entry): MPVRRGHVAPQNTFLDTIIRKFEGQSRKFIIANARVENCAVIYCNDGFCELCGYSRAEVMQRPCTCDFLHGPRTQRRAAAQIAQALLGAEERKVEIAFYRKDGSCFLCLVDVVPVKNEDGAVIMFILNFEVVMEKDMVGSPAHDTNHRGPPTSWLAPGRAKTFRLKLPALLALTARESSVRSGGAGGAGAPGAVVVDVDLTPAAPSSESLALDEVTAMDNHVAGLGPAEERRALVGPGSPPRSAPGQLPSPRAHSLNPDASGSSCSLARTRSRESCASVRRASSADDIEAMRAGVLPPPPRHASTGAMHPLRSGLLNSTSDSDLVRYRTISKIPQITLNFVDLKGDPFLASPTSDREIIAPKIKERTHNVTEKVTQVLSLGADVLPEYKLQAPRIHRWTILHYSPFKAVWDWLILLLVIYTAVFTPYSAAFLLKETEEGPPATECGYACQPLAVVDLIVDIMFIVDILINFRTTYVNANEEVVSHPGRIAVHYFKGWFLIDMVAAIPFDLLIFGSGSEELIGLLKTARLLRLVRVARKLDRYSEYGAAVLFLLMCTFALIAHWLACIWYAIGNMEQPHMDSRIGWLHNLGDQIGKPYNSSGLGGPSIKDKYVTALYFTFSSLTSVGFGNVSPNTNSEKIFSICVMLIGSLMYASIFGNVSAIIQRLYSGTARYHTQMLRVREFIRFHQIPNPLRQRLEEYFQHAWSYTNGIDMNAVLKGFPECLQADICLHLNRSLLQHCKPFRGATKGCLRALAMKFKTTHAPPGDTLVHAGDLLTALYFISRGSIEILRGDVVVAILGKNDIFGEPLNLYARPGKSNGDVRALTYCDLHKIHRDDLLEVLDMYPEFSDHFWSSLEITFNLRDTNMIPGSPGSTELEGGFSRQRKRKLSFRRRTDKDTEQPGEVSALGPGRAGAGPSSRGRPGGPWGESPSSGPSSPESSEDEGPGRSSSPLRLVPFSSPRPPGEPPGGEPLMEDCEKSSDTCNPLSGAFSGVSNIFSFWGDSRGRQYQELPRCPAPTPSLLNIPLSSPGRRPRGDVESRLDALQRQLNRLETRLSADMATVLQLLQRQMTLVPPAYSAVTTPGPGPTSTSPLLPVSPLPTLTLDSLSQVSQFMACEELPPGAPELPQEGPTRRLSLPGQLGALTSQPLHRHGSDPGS

On to `C[C@@]1(c2cc(NC(=O)c3cnc(-c4ncco4)cn3)ccc2F)C=CSC(N)=N1` [Compound 38], for which the IC50 at Recombinant human BACE-1 (setting [5]) is 0.304 µM. Further, the “remaining amount of the test compound after the reaction” value (“remaining amount of the test compound” below) in series [1] is 95%.
In the case of `C=C1C[C@@](C)(c2cncc(NC(=O)c3cnc(OC)cn3)c2)N=C(N)S1` [Compound 104], the IC50 was more than 20 µM at CYP2D6; more than 20 µM on CYP3A4 [2]; 0.063 µM on Recombinant human BACE-1 (setting [5]); more than 20 µM against CYP2C19; more than 20 µM on CYP2C9; more than 20 µM against CYP1A2.
On to `C[C@@]1(c2cccc(-c3cncc(C#N)c3)c2)CCSC(N)=N1` [Compound 212], for which the “remaining amount of the test compound” value in series [1] is reported as 95%.
With `CC1=C[C@@](C)(c2cncc(NC(=O)c3ccc(C#N)cn3)c2)N=C(N)S1` [Compound 108], the IC50 at Recombinant human BACE-1 is not above 1 µM. For the same compound, at CYP3A4 [3], the IC50 difference (with/without preincubation) was less than 3 µM.
With `C=C1C[C@@](C)(c2cncc(NC(=O)c3ncc(C(F)(F)F)cc3Cl)c2)N=C(N)S1` [Compound 106], the IC50 against CYP2D6 was more than 20 µM; on CYP3A4 [2], more than 20 µM; at Recombinant human BACE-1 (setting [5]), 0.102 µM; against CYP2C19 it was more than 20 µM; against CYP2C9, more than 20 µM; on CYP1A2, more than 20 µM.
Consider `CC(C)(C)S(=O)(=O)Nc1cnc(C(=O)Nc2ccc(F)c([C@]3(C)C=CSC(N)=N3)c2)cn1` [Compound 68], for which the IC50 against CYP2D6, on CYP3A4 [2], against CYP2C19, against CYP2C9 and at CYP1A2 was more than 20 µM in each case.
Take `Cc1cc(C(=O)Nc2ccc(F)c([C@]3(C)C=CSC(N)=N3)c2)n(C)n1` [Compound 35]: the concentration for half-maximal inhibition (IC50) was more than 20 µM against CYP2D6; more than 20 µM against CYP3A4 [2]; 0.096 µM at Recombinant human BACE-1 (setting [5]); more than 20 µM against CYP2C19; more than 20 µM at CYP2C9; more than 20 µM on CYP1A2.
Regarding `C[C@@]1(c2cccc(-c3ccc(F)nc3F)c2)CCSC(N)=N1` [Compound 213], the “remaining amount of the test compound” value in [1] was determined as 98%.
`C=C1C[C@@](C)(c2cc(NC(=O)c3cnc(OC)cn3)cnc2Cl)N=C(N)S1` [Compound 99]: the half-inhibitory concentration (IC50) on Recombinant human BACE-1 (setting [5]) amounted to 0.014 µM. The compound also came in with an IC50 difference (with/without preincubation) at CYP3A4 [3] of less than 3 µM.
Regarding `C=C1C[C@@](C)(c2cc(NC(=O)c3cnc(OC)cn3)cnc2C)N=C(N)S1` [Compound 102], the “% inhibition of tail peak current (IKr)” value in series [4] came to 2.3%. Further, the IC50 on Recombinant human BACE-1 (setting [5]) was found to be 0.036 µM.
Take `C[C@@]1(c2cc(NC(=O)c3cc4n(n3)CCN4)ccc2F)C=CSC(N)=N1` [Compound 63]: the 50% inhibitory concentration (IC50) on CYP2D6 was more than 20 µM; at CYP3A4 [2] it was more than 20 µM; at Recombinant human BACE-1 (setting [5]) it was 0.435 µM; against CYP2C19, more than 20 µM; on CYP2C9, more than 20 µM; at CYP1A2, more than 20 µM.
As for `CC1=CSC(N)=N[C@]1(C)c1cc(NC(=O)c2cnc(C)cn2)ccc1F` [Compound 23], the concentration for half-maximal inhibition (IC50) on Recombinant human BACE-1 (setting [5]) stood at 5.28 µM. The compound also registered a solubility at 4 h in “Solubility test” of more than 40 µM.
With `CNC(=O)c1ccc(-c2ccc(F)c([C@]3(C)C=CSC(N)=N3)c2)cn1` [Compound 92], the “% inhibition of tail peak current (IKr)” value in [4] is recorded as 7.9%.
Regarding `C[C@@]1(c2cc(NC(=O)c3cnc(-n4cncn4)cn3)ccc2F)C=CSC(N)=N1` [Compound 70], the IC50 on Recombinant human BACE-1 (setting [5]) was determined as 0.036 µM. This compound also showed a solubility at 4 h in “Solubility test” of more than 40 µM. The “remaining amount of the test compound” value in series [1] came to 94%.
On to `C[C@@]1(c2cc(NC(=O)c3ccc(OCCF)cn3)ccc2F)C=CSC(N)=N1` [Compound 32], for which the IC50 on Recombinant human BACE-1 was not above 1 µM. The compound also came in with a solubility at 4 h in “Solubility test” of more than 40 µM.
